# Measurements taken from patent US20260256770A1, “COMPOSITIONS FOR AND METHODS OF TREATING HEREDITARY AORTOPATHIES” (Duke University, priority 2021, published 2026).
# Entries after “also recorded” stand apart in the source; their conditions may differ.
# What was measured:
# 129S MFS mice = conditions: 129S background, Mmp17/EGFR/p38MAPK/ERK effects; cited from earlier work
# TRPC4 = target: T1, TRPC4 (Mus musculus, UniProt Q9QUQ5); conditions: ML204 as reference for projected binding affinity of candidate inhibitors; cited from earlier work
# T1 construct: expressed in transfected cells; host or cells: HEK293
# T1 sequence (Q9QUQ5 1-890 isoform Q9QUQ5-2): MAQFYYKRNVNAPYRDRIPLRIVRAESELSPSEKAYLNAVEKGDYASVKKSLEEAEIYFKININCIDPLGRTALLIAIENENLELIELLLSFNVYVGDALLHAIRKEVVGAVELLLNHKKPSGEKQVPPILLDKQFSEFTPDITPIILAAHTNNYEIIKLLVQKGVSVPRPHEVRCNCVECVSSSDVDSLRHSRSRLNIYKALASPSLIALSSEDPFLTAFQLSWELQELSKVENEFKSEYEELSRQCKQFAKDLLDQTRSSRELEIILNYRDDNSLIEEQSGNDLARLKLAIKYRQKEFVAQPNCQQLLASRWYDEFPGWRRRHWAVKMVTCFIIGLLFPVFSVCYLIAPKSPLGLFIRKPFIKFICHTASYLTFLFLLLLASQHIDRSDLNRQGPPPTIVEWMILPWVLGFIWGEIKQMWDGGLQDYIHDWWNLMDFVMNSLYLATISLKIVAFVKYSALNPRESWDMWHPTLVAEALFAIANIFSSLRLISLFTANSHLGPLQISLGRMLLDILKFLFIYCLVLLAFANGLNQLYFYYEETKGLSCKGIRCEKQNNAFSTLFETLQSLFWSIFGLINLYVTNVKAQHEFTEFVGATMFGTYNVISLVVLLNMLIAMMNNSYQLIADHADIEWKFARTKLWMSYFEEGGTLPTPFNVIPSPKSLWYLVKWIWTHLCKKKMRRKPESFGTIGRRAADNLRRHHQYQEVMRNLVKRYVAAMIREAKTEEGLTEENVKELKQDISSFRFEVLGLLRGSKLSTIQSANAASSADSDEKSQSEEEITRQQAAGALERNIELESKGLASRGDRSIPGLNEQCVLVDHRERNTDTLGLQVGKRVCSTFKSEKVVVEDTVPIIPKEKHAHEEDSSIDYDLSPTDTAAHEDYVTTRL
# FBN1 mutant MFS mouse [1] = experiment: Accelerated MFS model: osmotically delivered angiotensin II infusion in FBN1 mutant MFS mouse; type: in vivo
# Source text: (§1) The Examples provided infra use a novel murine MFS model of accelerated aortic aneurysm formation and cardiomyopathy. This MFS uses two well-characterized in vivo systems for studying aortopathy and cardiomyopathy, namely, the FBN1 mutant MFS mouse and osmotically delivered angiotensin II infusion. In this accelderated model, significant aortic aneurysms were observed as early as 10 days after angiotensin II pump implantation. […] Overwhelmingly, these deaths were a result of ascending aortic aneurysm rupture or dissection. […] Similarly, the accelerated MFS model described and used herein produced a dilated cardiomyopathy as early as 14 days after angiotensin II minipump installation, as determined by echocardiographic measurements of end-diastolic volume and ejection fraction, heart mass-to-body weight ratios, and hematoxylin and eosin tissue staining patterns consistent with the diagnosis. After 14 days of pump installation, 60% of surviving angiotensin II-infused MFS mice met a defined echocardiographic criteria for dilated cardiomyopathy.
# (§2) To better understand these clinical differences, a MFS mouse model was generated to facilitate high throughput therapeutic screening. Using exogenous angiotensin II in MFS mice, ascending aortic aneurysms can be generated in 2 weeks instead of 6-9 months (Cavanaugh N B, et al. (2017) Ann Thorac Surg. 104:657-665). […] TRPC4 antagonists therefore represent an opportunity to replace surgery in MFS aortopathy.
# [2] = tested on: accelerated MFS (aMFS) mice; conditions: aMFS aneurysms generated with exogenous angiotensin II; cited from earlier work
# MFS mice = conditions: cited from earlier work
# MFS patients = conditions: clinical; cited from earlier work
# [3] = Accelerated MFS model: osmotically delivered angiotensin II infusion in FBN1 mutant MFS mouse; type: in vivo; conditions: angiotensin II-infused wild-type mice over the treatment period
# Source text: as §1, §2
# FBN1 mutant MFS mouse [4] = conditions: instead of 6-9 months in MFS mice; cited from earlier work
molecule,measurement,setting,value
C#Cc1cccc(Nc2ncnc3cc(OCCOC)c(OCCOC)cc23)c1 [Erolotinib],aggressive MFS phenotype,129S MFS mice,rescue the aggressive MFS phenotype
"Cc1cc(N2CCCCC2)nc2ccccc12 [ML204, 4-Methyl-2-(piperidin-1-yl) quinoline]",IC50,TRPC4,960 to 2600 nM
"angiotensin II (DRVYIHPF; Angiotensin-2; UniProt P11859 25-32, looked up) [osmotically delivered exogenous angiotensin II used to accelerate aneurysm formation in MFS mice]",deaths of treatment group,FBN1 mutant MFS mouse [1]; at 14 days after implant,one third
same,deaths of treatment group,FBN1 mutant MFS mouse [1]; at 28 days after implant,more than half
CCCCc1nc(Cl)c(CO)n1Cc1ccc(-c2ccccc2-c2nn[nH]n2)cc1 [Losartan],response of aneurysms to therapy,[2],only partially respond
same,aneurysm growth,MFS mice; MFS mice started on therapy after aneurysms have formed / later in life,only attenuates aneurysm growth; also recorded: aneurysms continue to grow albeit at a slower rate; also recorded: had less of an effect
same,aneurysm formation / development,MFS mice; MFS mice treated prior to aneurysm development / at an early age,blocked aneurysm formation; also recorded: blocks aneurysm development; also recorded: did not develop aneurysms
same,aortic diameter growth,"MFS mice; estimate used for power calculation, 0.1 mm standard deviation",0.4 mm
same,aneurysm progression,MFS patients,only slowed aneurysm progression
same,number of patients who ultimately required surgery,MFS patients,did not affect
angiotensin II [osmotically delivered exogenous angiotensin II used to accelerate aneurysm formation in MFS mice],aneurysm formation,[3],did not form aneurysms
same,time to significant aortic aneurysms after pump implantation,FBN1 mutant MFS mouse [1]; MFS mice,≥ 10 days
same,time to dilated cardiomyopathy after minipump installation,"FBN1 mutant MFS mouse [1]; MFS mice, echocardiography",≥ 14 days
same,surviving mice meeting echocardiographic criteria for dilated cardiomyopathy,FBN1 mutant MFS mouse [1]; after 14 days of pump installation,60%
same,blood pressures,FBN1 mutant MFS mouse [1]; treatment group,not elevated
same,time to generate ascending aortic aneurysms,FBN1 mutant MFS mouse [4],2 weeks
